Laboratory results reported in PMC3858179 (Journal of medicinal chemistry, 2008).
Like-named read-outs stand apart in the source and are kept apart here.

Columns and labels:
[1] = system: CAKI-1; conditions: read-out: GI50 CAKI-1; Renal Cancer; cited from earlier work
[2] = system: HT29; conditions: read-out: GI50 HT29; Colon Cancer; cited from earlier work
[3] = system: human CCRF-CEM leukemia cells; conditions: read-out: EC50 growth of human CCRF-CEM leukemia cells in culture; cited from earlier work
[4] = system: PC-3; conditions: read-out: GI50 PC-3; Prostrate Cancer; cited from earlier work
[5] = system: SF268; conditions: read-out: GI50 SF268; Central Nervous System Cancer; cited from earlier work
[6] = system: MOLT-4; conditions: read-out: GI50 MOLT-4; Leukemia; cited from earlier work
[7] = system: SW-620; conditions: read-out: GI50 SW-620; Colon Cancer; cited from earlier work
[8] = system: HCT 15; conditions: read-out: GI50 HCT 15; Colon Cancer; cited from earlier work
[9] = system: ACHN; conditions: read-out: GI50 ACHN; Renal Cancer; cited from earlier work
[10] = system: MCF-7; conditions: read-out: GI50 MCF-7; Breast Cancer; cited from earlier work
[11] = system: RPMI-8226; conditions: read-out: GI50 RPMI-8226; Leukemia; cited from earlier work
[12] = system: CCRF-CEM; conditions: read-out: GI50 CCRF-CEM; Leukemia; cited from earlier work
[13] = system: HL-60 × (TB); conditions: read-out: GI50 HL-60 × (TB); Leukemia; cited from earlier work
[14] = system: folyl poly-γ-glutamate synthetase (FPGS); conditions: cited from earlier work
[15] = system: K-562; conditions: read-out: GI50 K-562; Leukemia; cited from earlier work
[16] = system: U251; conditions: read-out: GI50 U251; Central Nervous System Cancer; cited from earlier work
[17] = system: 60 tumor cell lines; conditions: in 11 of the 60 tumor cell lines evaluated; cited from earlier work
[18] = system: NCI-H460; conditions: read-out: GI50 NCI-H460; Nonsmall Cell Lung Cancer; cited from earlier work
[19] = system: RPMI-8226; assay: NCI tumor cell growth inhibition, RPMI-8226; type: cell-based; conditions: Homo sapiens, RPMI-8226, read-out: GI50 RPMI-8226
[20] = system: SF268; assay: NCI tumor cell growth inhibition, SF268; type: cell-based; conditions: Homo sapiens, SF-268, read-out: GI50 SF268
[21] = system: HL-60 × (TB); assay: NCI tumor cell growth inhibition, HL-60 ×; type: cell-based; conditions: Homo sapiens, HL-60, read-out: GI50 HL-60 × (TB)
[22] = molecular target: T1, human DHFR (Homo sapiens, UniProt P00374); assay: Inhibition of isolated human DHFR; type: biochemical
T1 sequence (P00374 1-187): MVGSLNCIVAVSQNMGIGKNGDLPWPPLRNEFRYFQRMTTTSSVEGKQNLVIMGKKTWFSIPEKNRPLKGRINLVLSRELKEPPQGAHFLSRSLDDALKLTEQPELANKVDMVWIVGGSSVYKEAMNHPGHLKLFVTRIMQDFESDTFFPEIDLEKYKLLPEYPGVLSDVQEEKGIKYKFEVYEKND

[23] = system: LOX IMVI; assay: NCI tumor cell growth inhibition, LOX IMVI; type: cell-based; conditions: Homo sapiens, read-out: GI50 LOX IMVI
[24] = system: U251; assay: NCI tumor cell growth inhibition, U251; type: cell-based; conditions: Homo sapiens, U-251, read-out: GI50 U251
[25] = system: CCRF-CEM; assay: NCI tumor cell growth inhibition, CCRF-CEM; type: cell-based; conditions: Homo sapiens, read-out: GI50 CCRF-CEM
[26] = system: 60 tumor cell lines; assay: NCI in vitro preclinical antitumor screening, 60 tumor cell lines; type: cell-based
[27] = system: HCT 15; assay: NCI tumor cell growth inhibition, HCT 15; type: cell-based; conditions: Homo sapiens, HCT-15, read-out: GI50 HCT 15
[28] = system: ACHN; assay: NCI tumor cell growth inhibition, ACHN; type: cell-based; conditions: Homo sapiens, read-out: GI50 ACHN
[29] = system: HT29; assay: NCI tumor cell growth inhibition, HT29; type: cell-based; conditions: Homo sapiens, HT-29, read-out: GI50 HT29
[30] = system: SW-620; assay: NCI tumor cell growth inhibition, SW-620; type: cell-based; conditions: Homo sapiens, SW-620, read-out: GI50 SW-620
[31] = molecular target: human TS (Homo sapiens, UniProt P04818); assay: Inhibition of isolated human TS; type: biochemical
human TS, sequence (P04818 whole entry): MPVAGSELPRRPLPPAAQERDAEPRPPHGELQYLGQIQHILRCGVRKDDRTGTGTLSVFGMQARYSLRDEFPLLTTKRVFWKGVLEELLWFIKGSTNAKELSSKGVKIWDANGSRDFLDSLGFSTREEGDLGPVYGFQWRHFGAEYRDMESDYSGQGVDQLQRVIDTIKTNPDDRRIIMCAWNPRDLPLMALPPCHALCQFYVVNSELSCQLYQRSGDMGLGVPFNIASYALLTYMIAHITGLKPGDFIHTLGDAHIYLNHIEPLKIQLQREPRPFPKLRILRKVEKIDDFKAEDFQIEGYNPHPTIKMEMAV

[32] = system: K-562; assay: NCI tumor cell growth inhibition, K-562; type: cell-based; conditions: Homo sapiens, K562, read-out: GI50 K-562
[33] = molecular target: rat liver DHFR (Rattus norvegicus, UniProt Q920D2); assay: Inhibition of isolated rat liver DHFR; type: biochemical
rat liver DHFR, sequence (Q920D2 whole entry): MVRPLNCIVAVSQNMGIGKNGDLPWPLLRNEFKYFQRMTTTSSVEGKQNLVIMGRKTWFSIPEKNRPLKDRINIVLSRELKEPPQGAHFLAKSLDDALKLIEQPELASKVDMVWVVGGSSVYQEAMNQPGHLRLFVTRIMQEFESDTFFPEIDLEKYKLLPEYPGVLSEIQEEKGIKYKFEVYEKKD

[34] = molecular target: P. carinii DHFR (Pneumocystis carinii, UniProt P16184); assay: biochemical
P. carinii DHFR, sequence (P16184 whole entry): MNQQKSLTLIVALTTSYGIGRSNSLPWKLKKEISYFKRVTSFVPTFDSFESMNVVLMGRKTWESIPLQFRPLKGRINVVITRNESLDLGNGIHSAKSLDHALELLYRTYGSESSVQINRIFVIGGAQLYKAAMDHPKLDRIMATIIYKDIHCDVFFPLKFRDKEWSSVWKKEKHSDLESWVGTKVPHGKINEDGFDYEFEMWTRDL

[35] = system: NCI-H460; assay: NCI tumor cell growth inhibition, NCI-H460; type: cell-based; conditions: Homo sapiens, NCI-H460, read-out: GI50 NCI-H460
[36] = molecular target: M. avium DHFR (Mycobacterium avium, UniProt O30463); assay: Inhibition of isolated M. avium DHFR; type: biochemical
M. avium DHFR, sequence (O30463 1-181): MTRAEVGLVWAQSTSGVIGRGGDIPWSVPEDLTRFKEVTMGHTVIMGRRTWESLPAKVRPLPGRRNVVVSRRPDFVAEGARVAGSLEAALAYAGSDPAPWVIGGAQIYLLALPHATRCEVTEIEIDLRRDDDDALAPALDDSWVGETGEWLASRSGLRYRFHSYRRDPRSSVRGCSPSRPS

[37] = system: CAKI-1; assay: NCI tumor cell growth inhibition, CAKI-1; type: cell-based; conditions: Homo sapiens, CAKI-1, read-out: GI50 CAKI-1
[38] = molecular target: T2, T. gondii DHFR (Toxoplasma gondii, UniProt Q07422); type: biochemical; conditions: 20 compounds jointly assayed, by both protocols (Table 1 and Table 2 conditions)
T2 sequence (Q07422 1-610): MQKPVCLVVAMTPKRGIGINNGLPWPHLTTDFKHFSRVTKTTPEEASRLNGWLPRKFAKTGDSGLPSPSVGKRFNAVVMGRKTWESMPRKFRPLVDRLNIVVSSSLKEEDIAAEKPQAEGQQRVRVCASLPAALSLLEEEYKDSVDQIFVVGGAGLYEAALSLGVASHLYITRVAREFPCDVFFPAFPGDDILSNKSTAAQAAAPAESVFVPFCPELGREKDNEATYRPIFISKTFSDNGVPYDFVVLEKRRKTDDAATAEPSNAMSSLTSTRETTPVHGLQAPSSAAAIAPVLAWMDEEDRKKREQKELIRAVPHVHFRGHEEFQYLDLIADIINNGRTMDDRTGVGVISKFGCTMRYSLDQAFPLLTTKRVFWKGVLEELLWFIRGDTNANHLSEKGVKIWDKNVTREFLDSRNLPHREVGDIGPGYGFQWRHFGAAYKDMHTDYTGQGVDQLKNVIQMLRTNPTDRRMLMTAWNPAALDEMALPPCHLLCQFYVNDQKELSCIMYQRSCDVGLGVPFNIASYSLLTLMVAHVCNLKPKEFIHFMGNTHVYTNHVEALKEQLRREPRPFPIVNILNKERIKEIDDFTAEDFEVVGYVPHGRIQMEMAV

[39] = system: MOLT-4; assay: NCI tumor cell growth inhibition, MOLT-4; type: cell-based; conditions: Homo sapiens, MOLT-4, read-out: GI50 MOLT-4

For `Cc1c(Sc2ccc(C(=O)N[C@@H](CCC(=O)O)C(=O)O)cc2)[nH]c2nc(N)nc(N)c12` [Compound 1], which GI50 [1] is on record?
The GI50 was > 100000 nM.

What about the GI50 [2] of the same compound?
Its GI50 is 160 nM.

What about the EC50 [3] of the same compound?
Its EC50 is 190 nM.

And the GI50 [4]?
Its GI50 is 43.6 nM.

And the GI50 [5]?
The GI50 was 74700 nM.

What about the GI50 [6] of the same compound?
Its GI50 is < 10 nM.

What about the GI50 [7] of the same compound?
The GI50 was 124 nM.

And the GI50 [8]?
The GI50 was 59500 nM.

What about the GI50 [9] of the same compound?
The GI50 was 24200 nM.

What about the GI50 [10] of the same compound?
Its GI50 is > 100000 nM.

What about the GI50 [11] of the same compound?
Its GI50 is < 10 nM.

And the GI50 [12]?
Its GI50 is 221 nM.

And the GI50 [13]?
The GI50 was 43.5 nM.

What about the FPGS substrate activity [14] of the same compound?
Its FPGS substrate activity is “reasonable”.

What about the GI50 [15] of the same compound?
Its GI50 is 29.5 nM.

And the GI50 [16]?
The GI50 was 824 nM.

And the GI50 [17]?
Its GI50 is ≤ 100 nM.

What about the GI50 [18] of the same compound?
Its GI50 is 631 nM.

Which GI50 [19] does the source give for `CC(C)c1c(Sc2ccc(C(=O)N[C@@H](CCC(=O)O)C(=O)O)cc2)[nH]c2nc(N)nc(N)c12` [Compound 4, N-[4-[(2,4-Diamino-5-isopropyl-7H-pyrrolo[2,3-d]pyrimidin-6-yl)sulfanyl]-benzoyl]-L-glutamate] here?
Its GI50 is 7740 nM.

What about the GI50 [20] of the same compound?
Its GI50 is 17800 nM.

And the GI50 [21]?
Its GI50 is 5650 nM.

What about the IC50 [22] of the same compound?
The IC50 was 90 nM.

What about the “fold less potent as hDHFR inhibitor compared with MTX” value [22] of the same compound?
The value was ~4 fold.

What about the “fold more potent than pemetrexed as hDHFR inhibitor” value [22] of the same compound?
Its value is ~17 fold.

What about the “inhibition of hDHFR, in words” value [22] of the same compound?
The value was “good inhibitors”.

What about the GI50 [23] of the same compound?
The GI50 was 1140 nM.

And the GI50 [24]?
The GI50 was 7240 nM.

And the GI50 [25]?
Its GI50 is 536 nM.

What about the GI50 [26] of the same compound?
The GI50 was < 1000 nM.

What about the GI50 [27] of the same compound?
The GI50 was 34800 nM.

And the GI50 [28]?
Its GI50 is 7390 nM.

What about the GI50 [29] of the same compound?
The GI50 was 5760 nM.

What about the GI50 [30] of the same compound?
The GI50 was 4710 nM.

What about the “fold less inhibitory than pemetrexed against hTS” value [31] of the same compound?
The value was 4 fold.

And the “fold less potent than 1 as inhibitor of hTS” value [31]?
Its value is 63-74 fold.

And the GI50 [32]?
Its GI50 is 932 nM.

What about the IC50 [33] of the same compound?
The IC50 was 186 nM.

What about the IC50 [34] of the same compound?
Its IC50 is 4.8 nM.

And the Selectivity ratio rl/pc ([34]; IC50 rat liver DHFR/IC50 P. carinii DHFR)?
The Selectivity ratio rl/pc was 38.8.

What about the GI50 [35] of the same compound?
The GI50 was 6450 nM.

What about the IC50 [36] of the same compound?
Its IC50 is 0.391 nM.

What about the Selectivity ratio rl/ma ([36]; IC50 rat liver DHFR/IC50 M. avium DHFR) of the same compound?
The Selectivity ratio rl/ma was 475.7.

And the GI50 [37]?
Its GI50 is 4250 nM.

What about the “potency rank against T. gondii DHFR, in words” value [38] of the same compound?
Its value is “three most potent compounds”.

And the GI50 [39]?
Its GI50 is 1310 nM.
